Experiments:
[1] = test system: murine collagen-induced arthritis model; experiment: Murine collagen-induced arthritis model; assay type: in vivo, DBA/1J mice; conditions: oral 3, 10 or 30 mg/kg twice daily; FIG. 4
Description: Female DBA/1J mice (Jackson Laboratories, 7-8 weeks old) were received and allowed to acclimate for about one week. On the day of immunization, an emulsion was freshly prepared by homogenizing equal volumes of Complete Freund's Adjuvant (CFA, Chondrex #7001) and a collagen type-2 solution (bovine source, Chondrex #20022) using a tissue homogenizer, on ice. A volume of 0.1 mL of this emulsion was injected subcutaneously into the base of the tail of each mouse, which was lightly anesthetized with isoflurane. Mice recovered from anesthesia were allowed food and water ad libitum.
Eighteen days after immunization, the mice were injected intraperitoneally with 40 μg of lipopolysaccaride (LPS, Sigma # L4005) in 0.2 mL saline, in order to help synchronize the disease progression in all animals. Seven days after LPS injection, the mice were assessed for knee joint swelling by measurement of each knee joint using digital calipers and computing total joint circumference. The total knee joint circumference of the 4 knee joints was then used to randomize mice into treatment groups of equal average circumference.
This dosing continued twice daily at 8- and 16-hour intervals for the duration of the study. As a positive control, one group of mice received 25 mg/kg Jak inhibitor (JAKi) tofacitinib once per day. Joints were measured 2-3 times per week.

PPARγ = PPARγ (Homo sapiens (Human), UniProt P37231); experiment: Nuclear hormone receptor selectivity assay (GAL4-NHR-LBD luciferase reporter, HEK293); assay type: cell-based
Description: In the assay system used, an activated GAL4-nuclear hormone receptor (NHR) fusion construct binds to an upstream activation sequence (UAS) and drives a luciferase reporter gene. […]
HEK293 cells were transfected with GAL4-NHR-LBD construct (pcDNA3.1neo) and the pGL4.31 GAL4-luciferase reporter construct (Promega) and incubated overnight at 37° C. and 5% CO2. After 16-24 hours, cells were harvested and plated at 20 μL (10,000 cells)/well in tissue-culture treated 384 well plate. […] Next, plates are spun briefly and incubated overnight at 37° C. and 5% CO2. […] In agonist mode, test compound was incubated directly with the cells. For receptors that are not constitutively active, a known agonist is also tested as a positive control.
After 16-24 hours, luciferase activity was measured. Plates and luciferase reagent (e.g. One-Glo® or Dual Glo®; Promega, Madison, Wis.) were brought to room temperature. Next, a 25 μL aliquot of luciferase reagent was added to each well. Plates were spun down briefly and incubated at room temperature for 10 minutes. The luciferase signal was measured on an Envision plate reader (Perkin Elmer) set to the ultra-sensitive luminescence setting.

Sequence of PPARγ (P37231 238-503, species assumed): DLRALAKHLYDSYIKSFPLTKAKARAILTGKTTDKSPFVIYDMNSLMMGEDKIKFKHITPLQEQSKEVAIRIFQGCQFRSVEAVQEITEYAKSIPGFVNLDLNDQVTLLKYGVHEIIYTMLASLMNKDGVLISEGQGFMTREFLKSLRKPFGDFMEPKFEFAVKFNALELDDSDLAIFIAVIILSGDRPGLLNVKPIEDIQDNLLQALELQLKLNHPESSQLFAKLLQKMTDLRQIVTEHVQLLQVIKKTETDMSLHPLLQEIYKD

With O=C(O)[C@@H]1CC=C(c2nn(C(=O)c3c(Cl)cccc3C3(C(F)(F)F)CC3)c3c2CC[C@@H](C(=O)N2CCC4(COC4)C2)C3)CC1 [Test Compound] the total joint circumference [1] was “dose-dependent decrease in total joint circumference” and the “Agonist Mode, kind of agonism” value (PPARγ) was “(partial agonist)”.
